Data set [1] concerns A427-KDLKB1 and A427-LKB1 cells. The experiment in a line: ATP measurement/cell viability (CellTiter-Glo), A427. It is filed as cell-based, human. The conditions noted are these: 48 h; 2DG 10 mM, Tm 1.25 μg/ml, BFA 30 ng/ml; p<0.005. The procedure:
(§1) 500 H838 or A427 cells stably expressing either LKB1 or KDLKB1 were plated in 96 well plates. The following day, cells were dosed with the indicated treatments for 48 h. Cellular ATP levels were assessed using the CellTiter-Glo Luminescent Cell Viability Assay substrate (Promega) according to manufacturer's instructions. Luminescence was read using the DTX 880 Multimode Detector. Cellular ATP/cell viability was calculated relative to vehicle treated control.

Data set [2] deals with H838-KDLKB1 and H838-LKB1 cells. Kind of data set: ATP measurement/cell viability (CellTiter-Glo), H838. The class given is cell-based, human. The note with it: 48 h; 2DG 10 mM, Tm 1.25 μg/ml, BFA 30 ng/ml; p<0.005. The procedure:
as §1

Data set [3] shares this test system. The experiment in a line: Immunoblot of ER stress markers in H838-LKB1 and H838-KDLKB1 cells. The class given is cell-based, human. The note with it: 12 h; 2DG 10 mM, Tm 1.25 ug/ml, BFA 30 ng/ml. The procedure: (§2) Cells were washed once with ice-cold PBS and incubated on ice for 30 min with a lysis buffer containing 10 mM Tris-HCl, 150 mM NaCl, 0.1% SDS and 1% IGEPAL (Sigma) to which a protease inhibitor cocktail (Sigma) and two phosphatase cocktails I and II (Sigma) were added immediately before use. Lysates were transferred to tubes and insoluble material was pelleted by centrifugation. For immunoblotting, 50-100 μg of total protein lysates were separated by SDS-PAGE and transferred to nitrocellulose. Blots were blocked in 5% milk/Tris buffered saline/0.1% TWEEN® 20 (polyoxyethylenesorbitan monolaurate) (TBST) and primary antibodies were diluted in 5% Bovine Serum Albumin (Sigma)/TBST and incubated overnight at 4° C. Blots were developed with ECL plus (GE) and visualized on a Kodak Image station.
In general terms: Immunoblotting shows a protein as a band on a membrane.

For data set [4] the test system is unchanged. Kind of data set: Flow cytometry of ROS levels (CellROX staining). It is filed as cell-based, human. The conditions noted are these: CellROX FACS, 12 h; 2DG 10 mM, Tm 1.25 μg/ml, BFA 30 ng/ml; baseline difference 1.4-fold. As to the method:
To analyze levels of reactive oxygen species (ROS), 1×10^6 H838-KDLKB1 and H838-LKB1 cells were plated and treated with the indicated drugs. Cells were then stained with 0.5 1M CellRox™ for 30 min at 37° C., collected by trypsinization and washed with PBS. Following fixation with 2% Paraformaldehyde/PBS for 20 min, cells were brought to a final volume of 500 ll in PBS. CellRox™ staining of ROS was assessed using the Accuri C6 Flow Cytometer (BD Biosciences, San Jose, Calif., USA) with the threshold set at 80,000. A total of 30,000 events were collected per sample and ROS staining intensity determined using FCS Express 4 Flow Cytometer software. Background events were gated out using unstained control. Histogram plots were overlaid and histogram subtraction was performed by subtracting the integral of the stained control from the treated sample.
(In general: Flow cytometry measures light scatter and fluorescence of single cells or particles in a stream.)

In data set [5] the test system is H838-KDLKB1 cells. The experiment in a line: Clonogenic survival of H838-LKB1 and H838-KDLKB1 cells. The conditions noted are these: for Clonogenic cell survival of H838-KDLKB1 cells: 24 h, 2DG 10 mM, Tm 1.25 μg/ml, BFA 30 ng/ml. It is filed as cell-based, human. The procedure: (§3) Clonogenic survival assay were performed in 6 well dishes. Briefly, 200 of indicated cells were plated per well and allowed to attach overnight. Were indicated cells were pre-treated with 125 ng/ml of cyclohexamide (CHX) for one hour. Indicated drugs were diluted fresh into media and cells were treated for 24 h, at which time the drug containing media was removed and replaced with fresh media. After 14 days, cells were fixed in 10% Methanol/10% Acetic Acid and stained with 0.5% crystal violet. After washing in ddH2O, plates were allowed to dry and colonies of 50 cells or more were counted. The surviving fraction was calculated according to methods described by Franken et al. [Clonogenic assay of cells in vitro, NAT. PROT. 1 (5) (2006) 2315-2319].

The subject of data set [6] is H23-KDLKB1 and H23-LKB1 NSCLC cells. The experiment in a line: Immunoblot of BiP and CHOP in H23-LKB1 and H23-KDLKB1 cells. The class given is cell-based, human. The note with it: 18 h; or bortezomib (40 nM). The procedure: as §2
Data set [7] relates to H23-KDLKB1 and H23-LKB1 cells. Kind of data set: Clonogenic survival of H23-LKB1 and H23-KDLKB1 cells. The note with it: 24 h treatment, colonies after 14 days. It is filed as cell-based, human. As to the method: Clonogenic survival assay were performed in 6 well dishes. Briefly, 300-500 cells were plated per well and allowed to attach overnight. Drugs were diluted fresh into media and cells were treated for 24 hours. Drug containing media was removed and replaced with fresh media. After 14 days, cells were fixed in 10% Methanol/10% Acetic Acid and stained with 0.5% crystal violet. After washing in ddH2O, plates were allowed to dry and colonies of 50 cells or more were counted. The surviving fraction was calculated according to methods described by Franken, et al.
as §3

Data set [8] concerns AMPK, H2009 LA cells. Kind of data set: Immunoblot of BiP and CHOP in H2009 cells with AMPK inhibitor before 2DG. It is filed as cell-based, human. On the set-up: dose or concentration left out as unconfirmed. The conditions noted are these: H2009 cells treated with Compound C. As to the method:
Cells were incubated on ice for 30 minutes with a lysis buffer containing 10 mM Tris-HCL, 150 mM NaCl, 0.1% SDS and 1% IGEPAL (Sigma). Immediately before use, a protease inhibitor cocktail (Sigma) and two phosphatase cocktails I and II (Sigma) were added to the lysis buffer. Lysates were transferred to tubes and insoluble material was pelleted by centrifugation. Nuclear protein fractions were isolated using a NE-PER protein extraction kit (ThermoFisher) according to manufacturer's instructions. Protein concentration was determined using the Bio-Rad DC protein kit. For immunoblotting, 50-100 ug of total protein lysates was separated by SDS-PAGE and transferred to nitrocellulose. Blots were blocked in 5% milk/Tris buffered saline/0.1% TWEEN® 20 (polyoxyethylenesorbitan monolaurate) (TBST) and primary antibodies were diluted in 5% Bovine Serum Albumin (Sigma)/TBST and incubated overnight at 4° C. Blots were developed with ECL plus (GE) and visualized on a Kodak Image station.

The subject of data set [9] is H23-LKB1 and H23-KDLKB1 cells. The experiment in a line: Caspase 3/7 activity assay. It is filed as cell-based, human. The note with it: 5 ug/ml, 24 hours. As to the method:
H23-LKB1 and H23-KDLKB1 cell were plated as described previously and treated for 24 hours with tunicamycin (5 ug/ml) or vehicle (DMSO). Activity of Caspases 3 and 7 were determined using a Promega Caspase-Glo 3/7 kit and data analyzed as described previously.

Data set [10] in a line: Chronic dosing tolerability in vivo.

Consider `C[C@H]1CCC/C=C/[C@@H]2C[C@H](O)C[C@H]2[C@H](O)/C=C/C(=O)O1` [BFA, brefeldin A], for which the “Cellular ATP in A427-KDLKB1 compared to A427 re-expressing LKB1” value in [1] was “reduced ATP”. For the same molecule, in [2], the “Cellular ATP in H838-KDLKB1 compared to H838 re-expressing LKB1” value was “reduced ATP”. For the same molecule, in [3], the “Phosphorylated eIF2a in H838-KDLKB1 compared to H838-LKB1 cells” value is listed as “increased levels of phosphorylated eIF2a”. The “ROS levels in H838-KDLKB1, increase in intensity over H838-LKB1” value in data set [4] is 1.2 fold. For the same molecule, in [5], the “Clonogenic cell survival of H838-KDLKB1 cells” value is “reduced cell survival”.

As to `C[C@@H]1C[C@@H]([C@H](O)CC2CC(=O)NC(=O)C2)C(=O)[C@@H](C)C1` [CHX, Cycloheximide], the “Effect of added CHX on 2DG, BFA and Tm cytotoxicity in H838-KDLKB1 cells” value in data set [5] (125 ng/ml CHX pre-treatment one hour, compared to 2DG, BFA or Tm alone, p<0.05) is “ameliorate 2DG, BFA and Tm cytotoxicity”.

In the case of `CC(C)C[C@H](NC(=O)[C@H](Cc1ccccc1)NC(=O)c1cnccn1)B(O)O` [bortezomib], in data set [6], the “BiP expression in H23-KDLKB1 compared to H23 cells with reconstituted LKB1” value is on record as 9 fold decrease and the “CHOP expression in H23-KDLKB1 compared to H23 cells with reconstituted LKB1” value is recorded as 1.6 fold decrease. Also, the “Clonogenic survival / cytotoxicity in H23-KDLKB1 compared to H23-LKB1” value in [7] is on record as “reduced the survival of H23-KDLKB1 cells in a dose dependent manner”.

On to `Cc1ccc(-c2cc(C(F)(F)F)nn2-c2ccc(S(N)(=O)=O)cc2)cc1` [celecoxib], for which, in data set [6], the “BiP expression in H23-KDLKB1 compared to H23 cells with reconstituted LKB1” value was found to be 1.6 fold decrease and the “CHOP expression in H23-KDLKB1 compared to H23 cells with reconstituted LKB1” value came out at 1.3 fold decrease. Besides, the “Clonogenic survival / cytotoxicity in H23-KDLKB1 compared to H23-LKB1” value in data set [7] is on record as “reduced the survival of H23-KDLKB1 cells in a dose dependent manner”.

On to `c1cc(-c2cnn3cc(-c4ccc(OCCN5CCCCC5)cc4)cnc23)ccn1` [compound C], for which the “Expression of BiP and CHOP in response to 2DG” value in data set [8] is “prevented expression of both BiP and CHOP”.

For tunicamycin [Tm], the “Activity of Caspases 3 and 7 (apoptosis) in H23-KDLKB1 versus H23-LKB1” value in data set [9] is on record as “increased levels of Caspase activity”. The “Cellular ATP in A427-KDLKB1 compared to A427 re-expressing LKB1” value in data set [1] is reported as “reduced ATP”. In addition, in data set [2], the “Cellular ATP in H838-KDLKB1 compared to H838 re-expressing LKB1” value is reported as “reduced ATP”. Moreover, the “Phosphorylated eIF2a in H838-KDLKB1 compared to H838-LKB1 cells” value in data set [3] is given as “increased levels of phosphorylated eIF2a”. Further, the “Tolerability of chronic dosing” value in data set [10] is listed as “poorly tolerated”. Besides, in [4], the “ROS levels in H838-KDLKB1, increase in intensity over H838-LKB1” value is given as 1.67 fold. Further, the “Clonogenic survival / cytotoxicity in H23-KDLKB1 compared to H23-LKB1” value in data set [7] is recorded as “increased cytotoxicity”. Further, the “Clonogenic cell survival of H838-KDLKB1 cells” value in data set [5] is listed as “reduced cell survival”.
